Laboratory results: patent US20240156767A1, “SCREENING METHOD FOR GLP-1 SECRETION REGULATION AGENT, GLP-1 SECRETION REGULATION AGENT, COMPOSITION FOR PREVENTING OR AMELIORATING DIABETES, OBESITY, POSTPRANDIAL HYPERGLYCEMIA, NEURODEGENERATIVE DISEASE, HYPOGLYCEMIA, ADIPOSITY, OR NESIDIOBLASTOSIS, METHOD FOR PROMOTING SECRETION OF GLP-1 IN …” (The Nisshin OilliO Group, Ltd., priority 2021, published 2024)

How the values were obtained:
C57BL/6 male mice = assay: Glucose tolerance test in mice: plasma insulin concentration (ELISA); assay type: in vivo; conditions: 1000 mg/kg oral; for Plasma insulin concentration: glucose 2.5 g/kg 60 minutes after sample, blood 30 minutes after glucose, mean±standard error; for Effect on plasma insulin concentration (in words): wild-type mice, glucose tolerance test
Description: A glucose tolerance test was carried out by the following method to examine the effect by administration of various medium chain fatty acids (capric acid or lauric acid, both are a free body) to mice on plasma insulin secretion at that time. Note here that the above-mentioned medium chain fatty acid corresponds to a GPR84 agonist. Ten tablets of PBS (trade name “Phosphate Buffered Salts Tablets”, manufactured by Takara Bio Inc.) were dissolved in distilled water, and the total volume was adjusted to 1000 ml. To 10 ml of the prepared solution, 50 mg of carboxymethyl cellulose (trade name “Carboxymethyl cellulose sodium”, manufactured by FUJIFILM Wako Pure Chemical Industries, Ltd.) was added and mixed to obtain a carrier solution. To the obtained carrier solution, 2 g of capric acid (trade name “Decanoic acid”, manufactured by FUJIFILM Wako Pure Chemical Industries, Ltd.) was added, and mixed while heating to obtain a capric acid sample. A carrier solution was obtained in the same manner as in the (1-2) above. To the obtained carrier solution, 2 g of lauric acid (trade name “Dodecanoic acid”, manufactured by Sigma-Aldrich) was added and mixed while heating to obtain a lauric acid sample. Ten tablets of PBS (trade name “Phosphate Buffered Salts Tablets”, manufactured by Takara Bio Inc.) were dissolved in distilled water, and the total amount was adjusted to 1000 ml. To 10 ml of the prepared solution, 2.5 g of glucose (trade name “D(+)-glucose”, manufactured by FUJIFILM Wako Pure Chemical Industries, Ltd.) was added to obtain a glucose liquid. Based on the following method, any one of a control sample, a capric acid sample, and a lauric acid sample was administered to mice in each group, and then a glucose solution was further administered to carry out a glucose tolerance test. C57BL/6 male mice at 7- to 9-weeks old were purchased from Japan SLC, Inc. Each mouse (15 mice in total) was acclimatized for 1 week and then divided into three groups (a control sample administration group, a capric acid sample administration group, and a lauric acid sample administration group) so that the average body weight was uniform. […] Plasma was prepared from the obtained blood by a conventional method, and the plasma insulin concentration (pg/ml) was measured. The plasma insulin concentration was measured by ELISA using a commercially available kit (trade name “Revis (trademark) Insulin-Mouse (RTU)”, manufactured by Fujifilm Wako Shibayagi Co., Ltd.). In the data of FIG. 2 and Table 2, the measured value of the plasma insulin concentration was expressed as “mean±standard error”. Dunnet's test was used to test significant differences between trials, and significant differences were determined to exist when the risk rate was less than 5% (*p<0.05).

STC-1 cells = assay: Cell culture test: GLP-1 secretion from enteroendocrine STC-1 cells (ELISA); assay type: cell-based; conditions: for GLP-1 CONCENTRATION: 30 minutes after sample, mean±standard error; for Effect on GLP-1 secretion from STC-1 cells (in words): 0.01-1.0 mM
Description: By carrying out a cell culture test (in vitro test) by the following method, and administering various medium chain fatty acids (capric acid or lauric acid, both are a free form) to enteroendocrine cells (STC-1 cells), an effect of each medium chain fatty acid on GLP-1 secretion was examined. The above medium chain fatty acids correspond to GPR84 agonists. To the same dimethyl sulfoxide (1 ml) as in the (1-1) above, 172 mg of capric acid (trade name “Decanoic Acid <Capric Acid>”, manufactured by New Check Prep) was added to obtain 1000 mM of capric acid samples. A 1000 mM capric acid sample (0.1 ml) was added to dimethylsulfoxide (0.9 ml) to obtain a 100 mM capric acid sample. A 100 mM capric acid sample (0.1 ml) was added to dimethylsulfoxide (0.9 ml) to obtain a 10 mM capric acid sample. Note here that when capric acid was added to dimethylsulfoxide, a mixture was mixed while heating to prepare a sample having a uniform capric acid concentration. To the same dimethylsulfoxide (1 ml) as in the (1-1) above, 200 mg of lauric acid (trade name “Dodecanoic Acid <Lauric Acid>”, manufactured by New Check Prep) was added to obtain 1000 mM of lauric acid sample. A 1000 mM lauric acid sample (0.1 ml) was added to dimethylsulfoxide (0.9 ml) to obtain a 100 mM lauric acid sample. A 100 mM lauric acid sample (0.1 ml) was added to dimethylsulfoxide (0.9 ml) to obtain a 10 mM lauric acid sample. Note here that when lauric acid was added to dimethyl sulfoxide, the mixture was mixed while heating to prepare a sample having a uniform lauric acid concentration. STC-1 cells (trade name “STC-1”, manufactured by American Type Culture Collection) were cultured in a medium at 37° C. in 5% CO2 for 48 hours to obtain STC-1 cells for testing. Note here that as the medium, a DMEM medium (trade name “Dulbecco's Modified Eagle Medium (High Glucose)”, manufactured by Sigma-Aldrich) including 15% horse serum (trade name “Horse Serum, New Zealand origin”, manufactured by Gibco) and 5% fetal bovine serum (trade name “Fetal Bovine Serum (FBS) Standard, Origin South America”, manufactured by Cosmo Bio) was used. The culture medium for STC-1 cells was replaced with a serum-free medium (300 μl/well), starvation was carried out for 30 minutes, then the serum-free medium was replaced with a new serum-free medium (300 μl/well), and 0.3 μl each of any one of samples was added to each well. Thirty minutes after administration of the sample, the medium was collected and mixed in a 1.5 ml tube in which 3 μL of DPP4 inhibitor (trade name “DPP IV Inhibitor”, manufactured by Sigma-Aldrich) had been placed in advance. Then, each tube was centrifuged at 4° C. at 1,000×g for 5 minutes, and the supernatant was collected in a new 1.5 ml tube. GLP-1 concentration (nM) in the collected supernatant was measured. Note here that the GLP-1 concentration was measured by ELISA method using a commercially available kit (trade name “Glucagon Like Peptide-1 (Active) ELISA”, manufactured by Sigma-Aldrich). In the data of FIG. 1 and Table 1, the measured values of GLP-1 concentration are expressed as “mean±standard error”. Dunnet's test was used to test significant differences between trials, and significant differences were determined to exist when the risk rate was less than 5% (*p<0.05). Also, the sample concentrations in FIG. 1 and Table 1 indicate the concentrations in the medium in the cell culture test.

In the case of `CCCCCCCCCC(=O)O` [Capric acid, capric acid (n-decanoic acid)], the Plasma insulin concentration (C57BL/6 male mice) is reported as 395.1 ± 26.1 * pg/ml, the “Effect on plasma insulin concentration (in words)” value (C57BL/6 male mice) is reported as “significantly increased plasma insulin concentrations” and the “GLP-1 CONCENTRATION” value (STC-1 cells; 0.01 mM in medium) is reported as 1.235 ± 0.120 nM. For the same compound, the “GLP-1 CONCENTRATION” value (STC-1 cells; 0.1 mM in medium) was 1.517 ± 0.005 nM, the “GLP-1 CONCENTRATION” value (STC-1 cells; 1.0 mM in medium) was 4.629 ± 0.087 * nM and the “Effect on GLP-1 secretion from STC-1 cells (in words)” value (STC-1 cells) was “promoted GLP-1 secretion”.
For `CCCCCCCCCCCC(=O)O` [Lauric acid, lauric acid], the Plasma insulin concentration (C57BL/6 male mice) was 702.8 ± 84.4 * pg/ml, the “Effect on plasma insulin concentration (in words)” value (C57BL/6 male mice) was “significantly increased plasma insulin concentrations” and the “GLP-1 CONCENTRATION” value (STC-1 cells; 0.01 mM in medium) was 1.827 ± 0.060 * nM. For the same compound, the “GLP-1 CONCENTRATION” value (STC-1 cells; 0.1 mM in medium) was 3.915 ± 0.197 * nM, the “GLP-1 CONCENTRATION” value (STC-1 cells; 1.0 mM in medium) was 4.268 ± 0.084 * nM and the “Effect on GLP-1 secretion from STC-1 cells (in words)” value (STC-1 cells) was “promoted GLP-1 secretion”.
